Source: patent US20040115483A1, “Crystal modification of a cyclic depsipeptide having improved strength” (priority 2001, published 2004)
Blank lines part the entries; values can stand above or below the compound they belong to.

Columns and labels:
Haemonchus Contortus = experiment: Egg reduction test (eggs per gram of faeces) in experimentally infected sheep; format: in vivo; settings: oral (gelatin capsule), 1 sheep, EPG
Protocol: Effectiveness of Forms I-IV of the Depsipeptide of the Formula (I) at Different Oral Dosages Against Haemonchus Contortus in Sheep
Sheep (Merino or Blackhead breed, 25-35 kg of body weight) were experimentally infected with 5000H contortus L3 larvae and treated with the formulated test substance at the end of the prepatency time of the parasite. The test compounds were administered orally (gelatin capsule). The anthelmintic effectiveness of the test substances was measured as a function of reduction of the number of eggs per gram of faeces. To this end, fresh faeces from the test animals were processed according to the McMaster method, modified according to Wetzel, and the number of eggs was determined. The number of eggs was determined at regular intervals before and after the treatment. The anthelmintic effectiveness was defined as follows: 3=>95%, 2=75-95%, 1=50-75% and 0=<50% reduction in eggs (cf. also G. von Samson-Himmelstjerna, A. Harder, T. Schnieder, J. Kalbe, N. Mencke (2000) In vivo activities of the new anthelmintic depsipeptide PF1022A. Parasitol. Res. 86:194-199).

Cooperia Oncophora = experiment: Slaughter test (reduction of number of worms in small intestine) in experimentally infected cattle; format: in vivo; settings: oral, 3 cattle, slaughter 10 days after treatment
Protocol: Effectiveness of Forms I and IV of the Depsipeptide of the Formula (I) at Different Oral Dosages Against Cooperia Oncophora in Cattle
Cattle (breed: Hostein Friesean, species: Bos taurus, calves or young cattle of up to about 200 kg) were experimentally infected with 15,000 C. oncophora L3 larvae. After successful infection (prepatency time about 18-21 days) the number of eggs per gram of faeces was determined 3 times within one week. The animals were then (at day 0=day of the treatment) treated orally (gelatin capsule) or subcutaneously with the formulated test substance. The anthelmintic effectiveness of the test substances was determined as a function of the reduction of the number of worms (in % of the untreated control) in the small intestine after the animals had been slaughtered (10 days after the treatment) (cf. also G. von Samson-Himmelstjerna, A. Harder, T. Schnieder, J. Kalbe, N. Mencke (2000) In vivo activities of the new anthelmintic depsipeptide PF1022A. Parasitol. Res. 86: 194-199.).
The effectiveness in the slaughter experiment is stated in % reduction in worms, compared to the untreated control.

[1] = Thermodynamic stability of the crystal forms; format: physicochemical; settings: comparison of forms I-IV
[2] = Bioavailability of the crystal forms; format: in vivo; settings: comparison of forms I-IV

Structure (SMILES): CC(C)C[C@H]1C(=O)O[C@H](Cc2ccc(N3CCOCC3)cc2)C(=O)N(C)[C@@H](CC(C)C)C(=O)O[C@H](C)C(=O)N(C)[C@@H](CC(C)C)C(=O)O[C@H](Cc2ccc(N3CCOCC3)cc2)C(=O)N(C)[C@@H](CC(C)C)C(=O)O[C@H](C)C(=O)N1C [Form III]
Effectiveness (reduction of eggs per gram of faeces) (Haemonchus Contortus; dosage 0.1 mg/kg, listed as III): 1 (1 Sheep, EPG) (1 = effectiveness 50% to 75%)
Effectiveness (reduction of eggs per gram of faeces) (Haemonchus Contortus; dosage 0.5 mg/kg, listed as III): 1 (1 Sheep, EPG) (1 = effectiveness 50% to 75%)

Structure (SMILES): CC(C)C[C@H]1C(=O)O[C@H](Cc2ccc(N3CCOCC3)cc2)C(=O)N(C)[C@@H](CC(C)C)C(=O)O[C@H](C)C(=O)N(C)[C@@H](CC(C)C)C(=O)O[C@H](Cc2ccc(N3CCOCC3)cc2)C(=O)N(C)[C@@H](CC(C)C)C(=O)O[C@H](C)C(=O)N1C [Form II]
Effectiveness (reduction of eggs per gram of faeces) (Haemonchus Contortus; dosage 0.1 mg/kg, listed as II): 0 (1 Sheep, EPG) (0 = effectiveness ≦ 50 %)
Effectiveness (reduction of eggs per gram of faeces) (Haemonchus Contortus; dosage 0.5 mg/kg, listed as II): 0 (1 Sheep, EPG) (0 = effectiveness ≦ 50 %)

Structure (SMILES): CC(C)C[C@H]1C(=O)O[C@H](Cc2ccc(N3CCOCC3)cc2)C(=O)N(C)[C@@H](CC(C)C)C(=O)O[C@H](C)C(=O)N(C)[C@@H](CC(C)C)C(=O)O[C@H](Cc2ccc(N3CCOCC3)cc2)C(=O)N(C)[C@@H](CC(C)C)C(=O)O[C@H](C)C(=O)N1C [Form IV]
Effectiveness (% reduction in worms, compared to the untreated control) (Cooperia Oncophora; dosage 1.0 mg/kg, listed as IV): 43.09% (3 cattle, slaughter test)
Effectiveness (% reduction in worms, compared to the untreated control) (Cooperia Oncophora; dosage 2.0 mg/kg): 99.15% (3 cattle, slaughter test)
Effectiveness (reduction of eggs per gram of faeces) (Haemonchus Contortus; dosage 0.1 mg/kg, listed as IV): 0 (1 Sheep, EPG) (0 = effectiveness ≦ 50 %)
Effectiveness (reduction of eggs per gram of faeces) (Haemonchus Contortus; dosage 0.5 mg/kg, listed as IV): 0 (1 Sheep, EPG) (0 = effectiveness ≦ 50 %)
Effectiveness (reduction of eggs per gram of faeces) (Haemonchus Contortus; dosage 1.0 mg/kg): 3 (1 Sheep, EPG) (3 = effectiveness > 95%)
Thermodynamic stability (rank among the four forms) ([1]; listed as form IV): thermodynamically fourth most stable form

Thermodynamic stability (rank among the four forms) ([1]; listed as form I): thermodynamically most stable form
Bioavailability (rank among the forms) [2]: greatest bioavailability
Structure (SMILES): CC(C)C[C@H]1C(=O)O[C@H](Cc2ccc(N3CCOCC3)cc2)C(=O)N(C)[C@@H](CC(C)C)C(=O)O[C@H](C)C(=O)N(C)[C@@H](CC(C)C)C(=O)O[C@H](Cc2ccc(N3CCOCC3)cc2)C(=O)N(C)[C@@H](CC(C)C)C(=O)O[C@H](C)C(=O)N1C [Form I]
Effectiveness (% reduction in worms, compared to the untreated control) (Cooperia Oncophora; dosage 1.0 mg/kg, listed as I): 93.81% (3 cattle, slaughter test)
Effectiveness (reduction of eggs per gram of faeces) (Haemonchus Contortus; dosage 0.1 mg/kg, listed as I): 3 (1 Sheep, EPG) (3 = effectiveness > 95%)
Effectiveness (reduction of eggs per gram of faeces) (Haemonchus Contortus; dosage 0.5 mg/kg, listed as I): 3 (1 Sheep, EPG) (3 = effectiveness > 95%)
